The source of these data is patent US8742106B2 (Novartis AG, priority 2009, dated 2014).

SMILES strings stand for the structures.

The target in experiment [1] is T1, human orexin 2 receptors (Homo sapiens (Human), UniProt O43614). The experiment in a line: Calcium Accumulation in Cells (FLIPR), antagonism of orexin A. The settings on record: antagonism of orexin A, Cheng-Prusoff corrected; read-out: FLIPR hOx2R Ki. It is filed as cell-based. In a few lines:
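Antagonism was measured as block of orexin A-evoked Ca²⁺ fluorescence (FLIPR), with orexin A added one hour after test compound (usually 10^−9–10^−5 M), which was first read alone for agonist activity. Human orexin 2 receptor cells were dye-loaded with 2 μM Fluo4-AM and 0.1 mM probenecid for 1 h.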

Experiment [2] has as its target T2, human orexin 1 receptors (Homo sapiens (Human), UniProt O43613). Described as above. It is filed as cell-based. The note with it: antagonism of orexin A, Cheng-Prusoff corrected; read-out: FLIPR hOx1R Ki.
Experiment [3] concerns the target T1, human orexin 2 receptors. The experiment is described as follows: Radioligand Binding Assay I ([125I]orexin A competition, cell membranes). The settings on record: read-out: binding I hOx2R Kd. As to the method: (§1) Radioligand Binding Assay I
(§2) For crude cell membrane preparations, cells (CHO, Chinese hamster ovary or HEK, human embryonic kidney) expressing human orexin 1 or human orexin 2 receptors, were washed with HEPES (10 mM, pH 7.5), scraped off the culture plates with the same buffer, and centrifuged at 4° C. for 5 min at 2500×g. The cell pellet was either stored at −80° C. or used directly. Before the experiments, cell membranes were re-suspended in binding assay buffer (10 mM HEPES, 0.5% (w/v) bovine serum albumin, pH 7.5) by homogenisation with a Polytron homogeniser at 50 Hz for 20 s. Cell membranes were also used as made available by commercial providers.
(§3) In initial saturation experiments (to calculate Bmax), cell homogenates (150 μl) were incubated with 25-300 pM of the radioligand ([^125I]orexin A, 50 μl), 8 concentrations in triplicates in the presence or absence Orexin A (1 μM, 50 μl) to define non specific binding. Bound radioactivity was measured, and data were analysed with the program XLFIT or Graphpad Prism. Protein concentration was determined according to the Bradford/BioRad Protein Assay Kit.
(§4) In competition experiments, cell homogenates (150 μl) were incubated in assay buffer (10 mM HEPES, pH 7.5, 0.5% (w/v) bovine serum albumin, 5 mM MgCl2, 1 mM CaCl2, and tween 0.05%) for 1 h at room temperature with about 100 pM of the radioligand ([^125I]orexin A, 2100 Ci/mmole, 50 μl), and with various concentrations of compounds of the invention (50 μl) in triplicates; non-specific binding was determined in the presence of Orexin A (1 μM). Reactions were terminated by vacuum filtration, 3 washes of ice cold wash buffer (Tris-HCl pH 7.4/10 mM, with NaCl 154 mM).

In experiment [4] the target is T2, human orexin 1 receptors. The description is as above. The note with it: read-out: binding I hOx1R Kd. As to the method: as §1, §2, §3, §4

T2 sequence (O43613 whole entry): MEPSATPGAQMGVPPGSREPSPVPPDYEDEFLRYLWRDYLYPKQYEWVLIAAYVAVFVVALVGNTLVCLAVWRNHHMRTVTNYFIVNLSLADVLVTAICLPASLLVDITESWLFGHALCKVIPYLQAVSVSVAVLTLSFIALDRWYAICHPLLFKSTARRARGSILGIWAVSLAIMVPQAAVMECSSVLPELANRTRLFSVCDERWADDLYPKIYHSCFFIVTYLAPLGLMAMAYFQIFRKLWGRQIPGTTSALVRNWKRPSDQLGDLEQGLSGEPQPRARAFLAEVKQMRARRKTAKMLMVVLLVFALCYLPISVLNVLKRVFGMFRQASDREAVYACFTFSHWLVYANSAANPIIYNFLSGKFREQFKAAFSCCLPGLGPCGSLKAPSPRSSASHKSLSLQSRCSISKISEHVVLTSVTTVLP
T1 sequence (O43614 whole entry): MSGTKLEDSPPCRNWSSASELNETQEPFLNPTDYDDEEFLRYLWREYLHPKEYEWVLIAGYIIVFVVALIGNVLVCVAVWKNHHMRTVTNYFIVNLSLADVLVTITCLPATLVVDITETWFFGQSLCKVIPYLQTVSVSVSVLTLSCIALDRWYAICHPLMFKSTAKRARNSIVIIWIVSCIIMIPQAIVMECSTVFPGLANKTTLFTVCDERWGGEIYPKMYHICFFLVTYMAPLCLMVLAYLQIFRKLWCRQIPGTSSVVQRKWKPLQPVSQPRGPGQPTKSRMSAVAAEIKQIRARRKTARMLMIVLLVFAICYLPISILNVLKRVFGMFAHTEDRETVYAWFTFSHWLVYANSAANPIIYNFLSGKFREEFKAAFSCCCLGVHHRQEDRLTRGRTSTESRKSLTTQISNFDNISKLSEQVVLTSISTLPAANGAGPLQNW

Regarding `C[C@H](NC(=O)COc1cc(C(F)(F)F)c2c(-c3ccccc3F)nn(C)c2n1)c1ccccc1` [Example 1.1, (S)-2-(3-(2-fluorophenyl)-1-methyl-4-(trifluoromethyl)-1H-pyrazolo[3,4-b]pyridin-6-yloxy)-N-(1-phenylethyl)acetamide], the Ki (commonly the equilibrium dissociation constant of an inhibitor or competing ligand from its target) is 0.03 µM at human orexin 2 receptors [1] and 0.156 µM at human orexin 1 receptors [2]. The dissociation constant Kd – broadly, the free concentration of one partner at which half of the binding sites on the other are occupied at equilibrium, for simple one-to-one binding – was 0.079 µM at human orexin 2 receptors [3] and 0.185 µM at human orexin 1 receptors [4].
The matching figures for `C[C@H](NC(=O)COc1cc(C(F)(F)F)c2c(-c3ccccc3)cn(C)c2n1)c1ccccc1` [Example 6.77, (S)-2-(1-methyl-3-phenyl-4-(trifluoromethyl)-1H-pyrrolo[2,3-b]pyridin-6-yloxy)-N-(1-phenylethyl)acetamide]: 0.059 µM, 0.148 µM, 0.24 µM and 0.501 µM.
Take `Cc1ccc(CNC(=O)COc2cc(C(F)(F)F)c3c(-c4ccccc4)nn(C)c3n2)cc1` [Example 1.32, 2-(1-methyl-3-phenyl-4-(trifluoromethyl)-1H-pyrazolo[3,4-b]pyridin-6-yloxy)-N-(4-methylbenzyl)acetamide]: the results for the Ki on human orexin 2 receptors [1] and on human orexin 1 receptors [2] were 0.115 µM and 0.851 µM, respectively. The Kd on human orexin 2 receptors [3] was 1.38 µM; at human orexin 1 receptors [4] it was 2.6 µM.
The matching figures for `COc1ccc(CNC(=O)COc2cc(C(F)(F)F)c3c(-c4ccccc4)nn(C)c3n2)cc1` [Example 1.41, N-(4-methoxybenzyl)-2-(1-methyl-3-phenyl-4-(trifluoromethyl)-1H-pyrazolo[3,4-b]pyridin-6-yloxy)acetamide]: 0.083 µM, 0.8 µM, 0.41 µM and 1.24 µM.
For `COc1cccc(C(C)NC(=O)COc2cc(C(F)(F)F)c3c(-c4ccccc4)nn(C)c3n2)c1` (centres unmarked) [Example 1.46, N-(1-(3-methoxyphenyl)ethyl)-2-(1-methyl-3-phenyl-4-(trifluoromethyl)-1H-pyrazolo[3,4-b]pyridin-6-yloxy)acetamide], the figures for the Ki on human orexin 2 receptors [1] and on human orexin 1 receptors [2] were 0.026 µM and 0.02 µM, respectively. Further, the Kd was determined as 0.101 µM on human orexin 2 receptors [3] and 0.042 µM at human orexin 1 receptors [4].
As to `COc1ccc(-c2nn(C)c3nc(OCC(=O)N[C@@H](C)c4ccccc4)cc(C(F)(F)F)c23)cc1` [Example 1.20], the inhibition constant (Ki) on human orexin 2 receptors [1] amounted to 0.076 µM; at human orexin 1 receptors [2], 0.378 µM. Besides, the dissociation constant (Kd) amounted to 0.187 µM at human orexin 2 receptors [3] and 0.299 µM on human orexin 1 receptors [4].
The matching figures for `COc1ccc(C(C)NC(=O)COc2cc(C(F)(F)F)c3c(-c4ccccc4)nn(C)c3n2)cn1` (centres unmarked) [Example 1.67, N-(1-(6-methoxypyridin-3-yl)ethyl)-2-(1-methyl-3-phenyl-4-(trifluoromethyl)-1H-pyrazolo[3,4-b]pyridin-6-yloxy)acetamide]: 0.002 µM, 0.027 µM, 0.02 µM and 0.046 µM.
The corresponding values for `COc1ccc([C@H](C)NC(=O)COc2cc(C)c3c(C4CC4)nn(C)c3n2)cc1` [Example 1.71, (S)-2-(3-cyclopropyl-1,4-dimethyl-1H-pyrazolo[3,4-b]pyridin-6-yloxy)-N-(1-(4-methoxyphenyl)ethyl)acetamide] are 0.088 µM, 0.145 µM, 0.063 µM and 0.105 µM.
Regarding `Cn1nc(-c2ccccc2F)c2c(C(F)(F)F)cc(OCC(=O)N[C@H]3CCc4ccccc43)nc21` [Example 1.60, (S)-N-(2,3-dihydro-1H-inden-1-yl)-2-(3-(2-fluorophenyl)-1-methyl-4-(trifluoromethyl)-1H-pyrazolo[3,4-b]pyridin-6-yloxy)acetamide], the inhibition constant (Ki) at human orexin 2 receptors [1] is 0.036 µM; on human orexin 1 receptors [2], 0.236 µM. Further, the results for the equilibrium dissociation constant (Kd) on human orexin 2 receptors [3] and on human orexin 1 receptors [4] were 0.144 µM and 0.418 µM, respectively.
The matching figures for `Cc1nn(C)c(C)c1C(C)NC(=O)COc1cc(C(F)(F)F)c2c(-c3ccccc3)nn(C)c2n1` (centres unmarked) [Example 1.70, 2-(1-methyl-3-phenyl-4-(trifluoromethyl)-1H-pyrazolo[3,4-b]pyridin-6-yloxy)-N-(1-(1,3,5-trimethyl-1H-pyrazol-4-yl)ethyl)acetamide]: 0.01 µM, 0.008 µM, 0.05 µM and 0.026 µM.
The corresponding values for `COc1ccc(C(C)NC(=O)COc2cc(C(F)(F)F)c3c(-c4ccccc4)nn(C)c3n2)cc1` (centres unmarked) [Example 1.45, N-(1-(4-methoxyphenyl)ethyl)-2-(1-methyl-3-phenyl-4-(trifluoromethyl)-1H-pyrazolo[3,4-b]pyridin-6-yloxy)acetamide] are 0.002 µM, 0.029 µM, 0.007 µM and 0.032 µM.
The corresponding values for `Cc1cc(OCC(=O)NC(C)CCc2ccccc2)nc2c1c(-c1ccccc1)nn2C` (centres unmarked) [Example 1.16, 2-(1,4-dimethyl-3-phenyl-1H-pyrazolo[3,4-b]pyridin 6-yloxy)-N-(4-phenylbutan-2-yl)acetamide] are 0.049 µM, 0.456 µM, 0.028 µM and 0.116 µM.
As for `Cc1ccc(-c2nn(C)c3nc(OCC(=O)N[C@@H](C)c4ccccc4)cc(C(F)(F)F)c23)cc1` [Example 1.48, (S)-2-(1-methyl-3-p-tolyl-4-(trifluoromethyl)-1H-pyrazolo[3,4-b]pyridin-6-yloxy)-N-(1-phenylethyl)acetamide], the Ki was 0.075 µM at human orexin 2 receptors [1] and 0.178 µM on human orexin 1 receptors [2]. In addition, the equilibrium dissociation constant (Kd) at human orexin 2 receptors [3] came out at 0.212 µM; on human orexin 1 receptors [4] it was 0.49 µM.
The matching figures for `CC(Oc1cc(C(F)(F)F)c2c(-c3ccccc3)nn(C)c2n1)C(=O)N[C@@H](C)c1ccccc1` (single isomer, unassigned) [Example 1.73]: 0.091 µM, 0.226 µM, 0.162 µM and 0.225 µM.
As for `Cc1cccc(-c2nn(C)c3nc(OCC(=O)N[C@@H](C)c4ccccc4)cc(C(F)(F)F)c23)c1` [Example 1.24, (S)-2-(1-methyl-3-m-tolyl-4-(trifluoromethyl)-1H-pyrazolo[3,4-b]pyridin-6-yloxy)-N-(1-phenylethyl)acetamide], the Ki on human orexin 2 receptors [1] was determined as 0.087 µM; at human orexin 1 receptors [2] it was 0.054 µM. The figures for the Kd at human orexin 2 receptors [3] and at human orexin 1 receptors [4] were 0.153 µM and 0.048 µM, respectively.
The corresponding values for `COc1cccc(-c2nn(C)c3nc(OCC(=O)N[C@@H](C)c4ccccc4)cc(C(F)(F)F)c23)c1` [Example 1.19, (S)-2-(3-(3-methoxyphenyl)-1-methyl-4-(trifluoromethyl)-1H-pyrazolo[3,4-b]pyridin-6-yloxy)-N-(1-phenylethyl)acetamide] are 0.187 µM, 0.108 µM, 0.855 µM and 0.101 µM.
Turning to `CC(NC(=O)COc1cc(C(F)(F)F)c2c(-c3ccccc3)nn(C)c2n1)c1ccccc1` (centres unmarked) [Example 1.18, 2-(1-methyl-3-phenyl-4-(trifluoromethyl)-1H-pyrazolo[3,4-b]pyridin-6-yloxy)-N-(1-phenylethyl)acetamide], the Ki on human orexin 2 receptors [1] turned out to be 0.026 µM; on human orexin 1 receptors [2], 0.048 µM. Also, the figures for the Kd at human orexin 2 receptors [3] and at human orexin 1 receptors [4] were 0.063 µM and 0.036 µM, respectively.
As for `COc1ccccc1-c1nn(C)c2nc(OCC(=O)N[C@@H](C)c3ccccc3)cc(C(F)(F)F)c12` [Example 1.49, (S)-2-(3-(2-methoxyphenyl)-1-methyl-4-(trifluoromethyl)-1H-pyrazolo[3,4-b]pyridin-6-yloxy)-N-(1-phenylethyl)acetamide], the Ki stood at 0.243 µM at human orexin 2 receptors [1] and 0.015 µM on human orexin 1 receptors [2]. Moreover, the results for the Kd on human orexin 2 receptors [3] and on human orexin 1 receptors [4] were 0.715 µM and 0.006 µM, respectively.
On to `C[C@H](NC(=O)COc1cc(C(F)(F)F)c2c(-c3cccc(Br)c3)nn(C)c2n1)c1ccccc1` [Example 1.58, (S)-2-(3-(3-bromophenyl)-1-methyl-4-(trifluoromethyl)-1H-pyrazolo[3,4-b]pyridin-6-yloxy)-N-(1-phenylethyl)acetamide], for which the results for the Ki at human orexin 2 receptors [1] and on human orexin 1 receptors [2] were 0.201 µM and 0.077 µM, respectively. Also, the dissociation constant Kd at human orexin 2 receptors [3] stood at 0.436 µM; on human orexin 1 receptors [4] it was 0.17 µM.
Regarding `C[C@H](NC(=O)COc1cc(C(F)(F)F)c2c(-c3ccccc3)nn(C)c2n1)c1ccccc1` [Example 1.17, (S)-2-(1-methyl-3-phenyl-4-(trifluoromethyl)-1H-pyrazolo[3,4-b]pyridin-6-yloxy)-N-(1-phenylethyl)acetamide], the Ki came out at 0.108 µM on human orexin 2 receptors [1] and 0.175 µM on human orexin 1 receptors [2]. Further, the Kd on human orexin 2 receptors [3] is 0.121 µM; on human orexin 1 receptors [4], 0.064 µM.
